Assay results as given in ChEMBL document CHEMBL1833864, “N'-(arylsulfonyl)pyrazoline-1-carboxamidines as novel, neutral 5-hydroxytryptamine 6 receptor (5-HT₆R) antagonists with unique structural features” (J Med Chem, 2011).

Experiments:
in vitro [1] = details: Sprague-Dawley, rat, hepatocytes
in vitro [2] = details: human, hepatocytes
[3] = target: 5-hydroxytryptamine receptor 6 (Homo sapiens, UniProt P50406); test: Displacement of [3H]-methyllysergic acid diethylamide from human 5-HT6 receptor expressed in CHO cells after 30 mins by liquid scintillation counting; format: cell-based
Sequence of 5-hydroxytryptamine receptor 6 (P50406 whole entry): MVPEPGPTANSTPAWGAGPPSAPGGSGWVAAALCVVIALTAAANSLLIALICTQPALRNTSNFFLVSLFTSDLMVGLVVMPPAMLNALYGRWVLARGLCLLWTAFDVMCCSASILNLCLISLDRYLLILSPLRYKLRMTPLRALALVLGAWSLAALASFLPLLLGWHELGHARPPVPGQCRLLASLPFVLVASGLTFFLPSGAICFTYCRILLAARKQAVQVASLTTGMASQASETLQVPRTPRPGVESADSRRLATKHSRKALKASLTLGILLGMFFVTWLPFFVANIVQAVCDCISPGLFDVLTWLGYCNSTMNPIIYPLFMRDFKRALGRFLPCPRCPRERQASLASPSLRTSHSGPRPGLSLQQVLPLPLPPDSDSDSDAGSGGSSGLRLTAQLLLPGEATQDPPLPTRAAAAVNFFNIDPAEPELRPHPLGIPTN

[4] = Tmax in Wistar rat; format: ADME, organism-based; details: in vivo
Cytochrome P450 2C19 = Cytochrome P450 2C19 (Homo sapiens, UniProt P33261); test: Inhibition of CYP 2C19; format: ADME
Cytochrome P450 3A4 = Cytochrome P450 3A4 (Homo sapiens, UniProt P08684); test: Inhibition of CYP 3A4; format: ADME
[5] = Plasma protein binding in human at 5 uM by LC/MS/MS analysis; format: ADME, cell-free; details: read-out: PPB (converted)
Cytochrome P450 2C9 = Cytochrome P450 2C9 (Homo sapiens, UniProt P11712); test: Inhibition of CYP 2C9; format: ADME
Sequence of Cytochrome P450 2C9 (P11712 whole entry): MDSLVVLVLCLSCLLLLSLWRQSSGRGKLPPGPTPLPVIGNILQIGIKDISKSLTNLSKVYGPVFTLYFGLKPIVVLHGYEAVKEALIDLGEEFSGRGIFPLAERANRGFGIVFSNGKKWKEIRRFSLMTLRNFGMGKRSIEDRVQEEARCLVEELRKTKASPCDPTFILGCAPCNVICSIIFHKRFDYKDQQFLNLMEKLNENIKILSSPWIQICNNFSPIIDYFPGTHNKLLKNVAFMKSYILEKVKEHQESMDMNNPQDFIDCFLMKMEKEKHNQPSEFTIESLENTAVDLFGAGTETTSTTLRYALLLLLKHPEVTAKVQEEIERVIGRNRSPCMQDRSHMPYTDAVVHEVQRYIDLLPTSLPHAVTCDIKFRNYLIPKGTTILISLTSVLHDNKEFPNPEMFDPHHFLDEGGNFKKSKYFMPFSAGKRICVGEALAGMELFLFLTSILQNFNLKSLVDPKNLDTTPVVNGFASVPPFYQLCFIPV

Cavia porcellus [6] = test: Cardiotoxicity in telemetered conscious freely moving Dunkin-Hartley guinea pig assessed as prolongation of electrocardiographic QTc interval at 100 mg/kg, sc administered for 120 mins; format: toxicity, organism-based; design: dose 100 mg/kg, route subcutaneous; details: in vivo, 2 h
[7] = Half life in Wistar rat plasma at 1 mg/kg, iv; format: ADME, organism-based; design: dose 1 mg/kg, route intravenous
[8] = Bioavailability in Wistar rat at 10 mg/kg, ip; format: ADME, organism-based; details: in vivo
[9] = target: Voltage-gated inwardly rectifying potassium channel KCNH2 (Homo sapiens, UniProt Q12809)
Sequence of Voltage-gated inwardly rectifying potassium channel KCNH2 (Q12809 whole entry): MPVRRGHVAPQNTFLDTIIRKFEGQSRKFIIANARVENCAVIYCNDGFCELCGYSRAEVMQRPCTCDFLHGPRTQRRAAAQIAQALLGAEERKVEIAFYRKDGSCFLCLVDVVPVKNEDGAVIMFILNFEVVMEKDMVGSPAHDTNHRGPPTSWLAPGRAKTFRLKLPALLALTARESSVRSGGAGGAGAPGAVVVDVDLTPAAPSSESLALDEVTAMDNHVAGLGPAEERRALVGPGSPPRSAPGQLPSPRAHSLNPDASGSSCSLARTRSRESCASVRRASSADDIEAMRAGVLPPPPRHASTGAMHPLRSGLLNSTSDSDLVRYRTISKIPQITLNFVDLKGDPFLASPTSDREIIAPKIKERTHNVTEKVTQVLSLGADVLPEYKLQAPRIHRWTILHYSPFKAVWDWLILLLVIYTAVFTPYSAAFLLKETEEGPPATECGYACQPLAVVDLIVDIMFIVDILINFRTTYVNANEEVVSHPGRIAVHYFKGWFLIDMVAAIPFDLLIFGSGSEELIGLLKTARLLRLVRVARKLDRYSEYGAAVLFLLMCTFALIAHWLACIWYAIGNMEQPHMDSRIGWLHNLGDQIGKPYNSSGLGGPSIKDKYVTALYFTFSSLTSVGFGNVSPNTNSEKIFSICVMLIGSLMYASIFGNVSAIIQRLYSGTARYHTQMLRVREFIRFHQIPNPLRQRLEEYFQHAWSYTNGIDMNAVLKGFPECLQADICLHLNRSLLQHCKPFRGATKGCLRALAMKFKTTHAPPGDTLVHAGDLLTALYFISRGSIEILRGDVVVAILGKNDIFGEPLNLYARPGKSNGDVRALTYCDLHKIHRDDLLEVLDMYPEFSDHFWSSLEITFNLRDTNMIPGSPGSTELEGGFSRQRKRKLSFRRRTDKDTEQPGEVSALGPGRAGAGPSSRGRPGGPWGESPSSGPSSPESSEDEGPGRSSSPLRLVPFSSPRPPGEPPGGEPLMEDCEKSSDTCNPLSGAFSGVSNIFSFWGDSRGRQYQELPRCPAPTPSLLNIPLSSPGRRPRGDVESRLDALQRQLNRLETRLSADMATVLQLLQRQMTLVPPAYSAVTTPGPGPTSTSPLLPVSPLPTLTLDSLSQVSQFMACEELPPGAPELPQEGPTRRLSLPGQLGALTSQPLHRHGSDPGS

[10] = Half life in Wistar rat plasma at 10 mg/kg, po; format: ADME, organism-based; design: dose 10 mg/kg, route oral
[11] = Oral bioavailability in Wistar rat at 10 mg/kg; format: ADME, organism-based; details: in vivo
[12] = target: 5-hydroxytryptamine receptor 2B (Homo sapiens, UniProt P41595); test: Inhibition of human 5-HT2B receptor
[13] = Ratio of drug level in brain to plasma in Wistar rat at 10 mg/kg, po; format: ADME, organism-based; design: dose 10 mg/kg, route oral; details: brain and plasma
Cytochrome P450 2D6 = Cytochrome P450 2D6 (Homo sapiens, UniProt P10635); test: Inhibition of CYP 2D6; format: ADME
LLC-PK1 = details: pig
Description: Permeability across pig LLC-PK1 cell line overexpressing human MDR1 at 3 hrs by LC/MS analysis

Cytochrome P450 1A2 = Cytochrome P450 1A2 (Homo sapiens, UniProt P05177); test: Inhibition of CYP 1A2; format: ADME
[14] = Fraction unbound in rat brain homogenate at 1 uM after 6 hrs by […]; format: ADME, tissue-based
Cavia porcellus [15] = test: Cardiotoxicity in telemetered conscious freely moving Dunkin-Hartley guinea pig assessed as prolongation of electrocardiographic QTc interval at 10 mg/kg, po measured up to 120 mins; format: toxicity, organism-based; design: dose 10 mg/kg, route oral; details: in vivo, 2 h
[16] = target: T1, 5-hydroxytryptamine receptor 1A (Homo sapiens, UniProt P08908); test: Inhibition of human 5-HT1A receptor
T1 sequence (P08908 whole entry): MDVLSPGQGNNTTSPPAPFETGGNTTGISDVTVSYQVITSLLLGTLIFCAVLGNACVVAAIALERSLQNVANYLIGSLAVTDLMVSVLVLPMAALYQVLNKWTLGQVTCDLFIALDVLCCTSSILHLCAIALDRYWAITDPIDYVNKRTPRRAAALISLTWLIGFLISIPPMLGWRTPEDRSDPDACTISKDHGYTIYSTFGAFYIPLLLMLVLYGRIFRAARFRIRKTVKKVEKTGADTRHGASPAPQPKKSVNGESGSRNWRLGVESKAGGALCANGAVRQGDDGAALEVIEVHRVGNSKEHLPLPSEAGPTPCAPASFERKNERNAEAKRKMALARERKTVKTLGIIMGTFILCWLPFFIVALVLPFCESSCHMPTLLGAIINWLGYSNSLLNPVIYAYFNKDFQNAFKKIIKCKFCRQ

[17] = target: Muscarinic acetylcholine receptor M2 (Homo sapiens, UniProt P08172); test: Inhibition of human muscarinic M2 receptor
[18] = target: 5-hydroxytryptamine receptor 1D (Homo sapiens, UniProt P28221); test: Inhibition of human 5-HT1D receptor
Sequence of 5-hydroxytryptamine receptor 1D (P28221 whole entry): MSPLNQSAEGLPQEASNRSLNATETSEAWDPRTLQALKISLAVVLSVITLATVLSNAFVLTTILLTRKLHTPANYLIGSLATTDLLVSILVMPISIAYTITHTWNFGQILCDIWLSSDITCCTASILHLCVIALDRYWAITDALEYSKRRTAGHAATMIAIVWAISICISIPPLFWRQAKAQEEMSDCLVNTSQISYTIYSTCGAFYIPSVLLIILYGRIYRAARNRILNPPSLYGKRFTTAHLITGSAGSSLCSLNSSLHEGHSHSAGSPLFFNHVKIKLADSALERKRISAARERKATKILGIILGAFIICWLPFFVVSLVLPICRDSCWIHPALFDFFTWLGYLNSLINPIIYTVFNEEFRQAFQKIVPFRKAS

[19] = Inhibition of human sigma receptor
Cavia porcellus [20] = test: Cardiotoxicity in telemetered conscious freely moving Dunkin-Hartley guinea pig assessed as prolongation of electrocardiographic QTc interval at 50 mg/kg, po measured up to 120 mins; format: toxicity, organism-based; design: dose 50 mg/kg, route oral; details: in vivo, 2 h
[21] = Plasma protein binding in rat at 5 uM by LC/MS/MS analysis; format: ADME, cell-free; details: read-out: PPB (converted)
[22] = target: Muscarinic acetylcholine receptor M1 (Homo sapiens, UniProt P11229); test: Inhibition of human muscarinic M1 receptor
Sequence of Muscarinic acetylcholine receptor M1 (P11229 whole entry): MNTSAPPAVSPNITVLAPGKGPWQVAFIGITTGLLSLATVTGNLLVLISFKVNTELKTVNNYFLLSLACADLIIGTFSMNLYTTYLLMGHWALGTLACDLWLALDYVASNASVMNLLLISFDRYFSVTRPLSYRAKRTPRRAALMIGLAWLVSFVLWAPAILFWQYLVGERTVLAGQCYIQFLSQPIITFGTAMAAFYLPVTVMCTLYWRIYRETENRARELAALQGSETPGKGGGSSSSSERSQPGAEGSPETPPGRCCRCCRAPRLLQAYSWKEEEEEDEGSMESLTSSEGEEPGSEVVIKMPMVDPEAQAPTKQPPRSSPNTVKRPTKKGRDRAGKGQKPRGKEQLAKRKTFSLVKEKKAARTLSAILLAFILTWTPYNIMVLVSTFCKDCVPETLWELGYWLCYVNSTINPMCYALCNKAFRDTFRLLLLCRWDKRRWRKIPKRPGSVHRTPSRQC

[23] = target: 5-hydroxytryptamine receptor 3A (Homo sapiens, UniProt P46098); test: Inhibition of human 5-HT3 receptor
[24] = target: Muscarinic acetylcholine receptor M3 (Homo sapiens, UniProt P20309); test: Inhibition of human muscarinic M3 receptor
[25] = target: Muscarinic acetylcholine receptor M4 (Homo sapiens, UniProt P08173); test: Inhibition of human muscarinic M4 receptor
[26] = target: Muscarinic acetylcholine receptor M5 (Homo sapiens, UniProt P08912); test: Inhibition of human muscarinic M5 receptor
[27] = target: 5-hydroxytryptamine receptor 2A (Homo sapiens, UniProt P28223); test: Inhibition of human 5-HT2A receptor
Sequence of 5-hydroxytryptamine receptor 2A (P28223 whole entry): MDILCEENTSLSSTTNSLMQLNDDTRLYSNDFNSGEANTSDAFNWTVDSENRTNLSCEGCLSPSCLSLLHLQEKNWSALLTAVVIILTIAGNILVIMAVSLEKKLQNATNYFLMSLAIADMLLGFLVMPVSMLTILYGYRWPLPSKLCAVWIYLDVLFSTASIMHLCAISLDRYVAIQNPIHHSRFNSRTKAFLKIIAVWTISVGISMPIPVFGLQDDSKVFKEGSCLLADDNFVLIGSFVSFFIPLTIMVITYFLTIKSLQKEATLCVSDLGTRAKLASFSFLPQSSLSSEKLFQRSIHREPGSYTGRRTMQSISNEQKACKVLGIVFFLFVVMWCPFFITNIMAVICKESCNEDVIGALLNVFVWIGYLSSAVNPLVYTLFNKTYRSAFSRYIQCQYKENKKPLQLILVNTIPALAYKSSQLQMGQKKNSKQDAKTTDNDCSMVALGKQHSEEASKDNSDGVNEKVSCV

D(2) dopamine receptor = D(2) dopamine receptor (Homo sapiens, UniProt P14416); test: Inhibition of human dopamine D2 receptor
Sequence of D(2) dopamine receptor (P14416 whole entry): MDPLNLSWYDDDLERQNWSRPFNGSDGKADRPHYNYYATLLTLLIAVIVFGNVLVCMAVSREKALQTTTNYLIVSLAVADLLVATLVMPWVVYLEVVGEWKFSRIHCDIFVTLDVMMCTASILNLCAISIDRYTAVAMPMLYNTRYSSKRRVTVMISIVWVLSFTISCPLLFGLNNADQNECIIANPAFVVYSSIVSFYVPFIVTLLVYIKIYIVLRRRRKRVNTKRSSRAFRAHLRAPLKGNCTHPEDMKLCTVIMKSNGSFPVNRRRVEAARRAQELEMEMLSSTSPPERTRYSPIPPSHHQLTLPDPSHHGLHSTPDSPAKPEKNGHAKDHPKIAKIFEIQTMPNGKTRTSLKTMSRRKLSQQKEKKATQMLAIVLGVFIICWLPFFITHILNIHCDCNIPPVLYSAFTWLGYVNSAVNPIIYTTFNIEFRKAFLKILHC

[28] = target: 5-hydroxytryptamine receptor 7 (Homo sapiens, UniProt P34969); test: Inhibition of human 5-HT7 receptor
Sequence of 5-hydroxytryptamine receptor 7 (P34969 whole entry): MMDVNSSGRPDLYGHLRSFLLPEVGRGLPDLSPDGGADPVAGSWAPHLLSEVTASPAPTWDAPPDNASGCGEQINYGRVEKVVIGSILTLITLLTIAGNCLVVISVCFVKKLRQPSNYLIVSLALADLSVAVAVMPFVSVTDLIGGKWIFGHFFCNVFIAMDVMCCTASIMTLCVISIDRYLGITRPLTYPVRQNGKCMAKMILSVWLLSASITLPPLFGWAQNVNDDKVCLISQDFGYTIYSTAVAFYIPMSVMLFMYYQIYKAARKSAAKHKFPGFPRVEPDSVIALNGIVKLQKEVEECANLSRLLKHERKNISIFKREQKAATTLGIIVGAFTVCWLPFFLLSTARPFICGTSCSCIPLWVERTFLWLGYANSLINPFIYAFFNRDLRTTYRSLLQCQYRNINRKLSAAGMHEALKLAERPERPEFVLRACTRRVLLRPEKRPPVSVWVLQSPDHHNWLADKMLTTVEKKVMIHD

[29] = target: 5-hydroxytryptamine receptor 2C (Homo sapiens, UniProt P28335); test: Inhibition of human 5-HT2C receptor
Sequence of 5-hydroxytryptamine receptor 2C (P28335 whole entry): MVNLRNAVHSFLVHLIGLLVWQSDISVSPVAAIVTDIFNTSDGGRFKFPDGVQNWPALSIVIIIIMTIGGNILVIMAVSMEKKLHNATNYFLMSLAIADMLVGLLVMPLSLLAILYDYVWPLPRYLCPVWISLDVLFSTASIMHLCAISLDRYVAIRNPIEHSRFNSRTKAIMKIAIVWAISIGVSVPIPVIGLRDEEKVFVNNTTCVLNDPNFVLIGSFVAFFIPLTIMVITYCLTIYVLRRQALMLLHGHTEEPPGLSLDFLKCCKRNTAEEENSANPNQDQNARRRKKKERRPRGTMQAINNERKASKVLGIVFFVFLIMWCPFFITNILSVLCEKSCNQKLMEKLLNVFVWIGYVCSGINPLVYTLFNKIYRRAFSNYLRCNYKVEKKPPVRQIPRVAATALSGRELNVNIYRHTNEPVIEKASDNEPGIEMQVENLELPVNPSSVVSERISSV

SMILES | hepatocyte CLint at 1 ug/mL (in vitro [1]) [µL/min/1e6 cells] | hepatocyte CLint at 1 ug/mL (in vitro [2]) [µL/min/1e6 cells] | Ki [3] [nM] | other results
CCN/C(=N\S(=O)(=O)c1ccccc1Cl)N1CC(CC)C=N1 (stereo unspecified) | 99 | 39 | 27.8 | –
CCC1C=NN(/C(=N/S(=O)(=O)c2ccccc2Cl)NCc2ccccc2)C1 (stereo unspecified) | – | – | 92 | –
CCC1C=NN(/C(=N/S(=O)(=O)c2ccccc2Cl)Nc2ccccc2)C1 (stereo unspecified) | – | – | > 1000 | –
CCC1C=NN(/C(=N/S(=O)(=O)c2ccccc2Cl)NC(C)C)C1 (stereo unspecified) | – | – | > 1000 | –
CCN/C(=N\S(=O)(=O)c1ccccc1)N1CC(CC)C=N1 (stereo unspecified) | – | – | 33.9 | –
CCCN/C(=N\S(=O)(=O)c1cccc(Cl)c1)N1CC(CC)C=N1 (stereo unspecified) | – | – | 14.6 | –
CCC1C=NN(/C(=N/S(=O)(=O)c2cccc(Cl)c2)NC)C1 (stereo unspecified) | – | – | 17.8 | –
CCC1C=NN(/C(N)=N/S(=O)(=O)c2cccc(Cl)c2)C1 (stereo unspecified) | – | – | 24.2 | –
CCN/C(=N\S(=O)(=O)c1cccc(Cl)c1)N1CC(C)C=N1 (stereo unspecified) | – | – | 8 | –
CCN/C(=N\S(=O)(=O)c1cccc(Cl)c1)N1CCC=N1 | – | – | 33.9 | –
CCN/C(=N\S(=O)(=O)c1cccc(Cl)c1)N1CCC(C)=N1 | – | – | 231 | –
CCC1C=NN(/C(=N/S(=O)(=O)c2cccc(Cl)c2)N(C)C)C1 (stereo unspecified) | – | – | > 1000 | –
CCN=C(NS(=O)(=O)c1cccc(Cl)c1)N1N=CC[C@H]1c1ccccc1 | 116 | 107 | – | –
CCN=C(NS(=O)(=O)c1cccc(Cl)c1)N1N=CC[C@@H]1c1ccccc1 | 107 | – | – | –
CCN/C(=N\S(=O)(=O)c1cccc(C(F)(F)F)c1)N1CC(CC)C=N1 (stereo unspecified) | 116 | 27 | 17.9 | –
CCN/C(=N\S(=O)(=O)c1cccc(C)c1)N1CC(CC)C=N1 (stereo unspecified) | 116 | 51 | 27.4 | –
CCN/C(=N\S(=O)(=O)c1cccc(OC)c1)N1CC(CC)C=N1 (stereo unspecified) | 92 | 46 | 26.6 | –
CCN/C(=N\S(=O)(=O)c1ccc(Cl)c(Cl)c1)N1CC(CC)C=N1 (stereo unspecified) | 198 | 92 | 7.9 | –
CCN/C(=N\S(=O)(=O)c1cc(Cl)ccc1Cl)N1CC(CC)C=N1 (stereo unspecified) | 116 | – | 119 | –

SMILES | hepatocyte CLint at 1 ug/mL (in vitro [1]) [µL/min/1e6 cells] | hepatocyte CLint at 1 ug/mL (in vitro [2]) [µL/min/1e6 cells] | Ki [3] [nM] | other results
CCN/C(=N\S(=O)(=O)c1c(Cl)cccc1Cl)N1CC(CC)C=N1 (stereo unspecified) | 126 | – | 197 | –
CCN/C(=N\S(=O)(=O)c1cccc(Cl)c1F)N1CC(CC)C=N1 (stereo unspecified) | 116 | 36 | 2.7 | –
CCN/C(=N\S(=O)(=O)c1ccc2ccccc2c1)N1CC(CC)C=N1 (stereo unspecified) | 139 | 41 | 17.2 | –
CCNC(=N[S+]([O-])c1sc2ccc(Cl)cc2c1C)N1CC(CC)C=N1 (stereo unspecified) | – | – | 8.5 | –
CCN/C(=N\S(=O)(=O)c1c(Cl)nc2sccn12)N1CC(CC)C=N1 (stereo unspecified) | 116 | 20 | 7.9 | –
CCN/C(=N\S(=O)(=O)c1c(C)nn(C)c1Cl)N1CC(CC)C=N1 (stereo unspecified) | 53 | 11 | – | –
CCN/C(=N\S(=O)(=O)c1ccc(S(C)(=O)=O)cc1)N1CC(CC)C=N1 (stereo unspecified) | 20 | 4 | – | –
CCN/C(=N\S(=O)(=O)c1cccc(Cl)c1)N1CC(C)(C)C=N1 | – | – | 24.1 | Tmax [4]: 0.5 h; IC50 (Cytochrome P450 2C19): > 10000 nM; IC50 (Cytochrome P450 3A4): > 10000 nM; fraction unbound at 5 µM [5]: 0.37; IC50 (Cytochrome P450 2C9): > 10000 nM; Activity (Cavia porcellus [6]): Non-toxic; half-life [7]: 2 h; bioavailability [8]: 45%; IC50 [9]: > 10000 nM; half-life [10]: 2 h; bioavailability [11]: 7%; Ki [12]: 7940 nM; Kp [13]: 1; IC50 (Cytochrome P450 2D6): > 10000 nM; permeability (LLC-PK1; llc-pk1, 3 h): 41%; IC50 (Cytochrome P450 1A2): > 10000 nM; fraction unbound at 6 h, 1 µM [14]: 0.01
CCN/C(=N\S(=O)(=O)c1cccc(Cl)c1)N1CC(CC)(CC)C=N1 | – | – | 49.9 | –
CCN/C(=N\S(=O)(=O)c1cccc(Cl)c1)N1CC2(C=N1)CCCC2 | – | – | 6.4 | –
CCN/C(=N\S(=O)(=O)c1cccc(Cl)c1)N1CC2(C=N1)CCCCC2 | – | – | 5.2 | –
CCN/C(=N\S(=O)(=O)c1cccc(Cl)c1)N1CC2(C=N1)CCNCC2 | 25 | 3 | – | Activity (Cavia porcellus [15]): Non-toxic; Ki ([16]; read-out: pKi (converted)): 10000 nM; Ki [17]: 10000 nM; Ki ([18]; read-out: pKi (converted)): 10000 nM; pKi [19]: 5; fraction unbound at 5 µM [5]: 0.34; Activity (Cavia porcellus [20]): Toxic; fraction unbound at 5 µM [21]: 0.41; Ki [22]: 10000 nM; IC50 [9]: 7940 nM; Ki [23]: 10000 nM; Ki [24]: 10000 nM; Ki [25]: 10000 nM; permeability (LLC-PK1; llc-pk1, 3 h): 14.7%; Ki [26]: 10000 nM
CCN=C(NS(=O)(=O)c1cccc(Cl)c1)N1CC(CF)(CF)C=N1 | – | – | 92 | –
CCN/C(=N\S(=O)(=O)c1cccc(Cl)c1)N1CC(CC)C=N1 (racemic) | – | – | – | Ki ([16]; read-out: Ki): > 1000 nM; Ki ([18]; read-out: Ki): > 1000 nM; Ki [27]: > 1000 nM; Ki (D(2) dopamine receptor): > 1000 nM; Ki [28]: > 1000 nM; Ki [29]: > 1000 nM
CCN/C(=N\S(=O)(=O)c1cccc(Cl)c1)N1N=CCC1c1ccccc1 (racemic) | 116 | 73 | – | Ki ([16]; read-out: Ki): > 1000 nM; Ki ([18]; read-out: Ki): > 1000 nM; Ki [27]: > 1000 nM; Ki (D(2) dopamine receptor): > 1000 nM; IC50 [9]: > 10000 nM; Ki [28]: > 1000 nM; Ki [29]: > 1000 nM; permeability (LLC-PK1; LLC-PK1, 3 h): 38.5%
CCN/C(=N\S(=O)(=O)c1cccc(Cl)c1)N1N=CCC1c1ccncc1 (racemic) | 87 | 50 | 322 | –
CCN/C(=N\S(=O)(=O)c1cccc(Cl)c1)N1N=CCC1c1ccco1 (racemic) | 198 | 92 | 8.2 | –
CCN=C(NS(=O)(=O)c1cccc(Cl)c1)N1N=CCC1c1ccc(F)cc1 (racemic) | 126 | 107 | 138 | –
